For one experiment, the target named is T1, IRAK-1 (Homo sapiens, UniProt P51617).
T1 construct: Recombinant, full-length IRAK-1 or IRAK-4 enzyme (baculovirus expression system) was added; Flag (N); made in house
The experiment can be described thus: Enzymatic inhibition assay, IRAK-1 kinase activity (chemiluminescent ELISA). The format is biochemical. The note with it: for IC50: recombinant full-length IRAK-1, 3 μM ATP, 60 min room temperature, read-out: IC50 values (μM) IRAK-1. The protocol:
Enzymatic inhibition assay.
(§1) 96-well polystyrene microtiter plates were coated with neutravidin for IRAK-1 or streptavidin for IRAK-4 ([…] in PBS, overnight at 4° C.). The coating solution was removed and in 80 μL/well a kinase reaction mixture was added (for IRAK-1: 20 mM Tris-HCl, pH 7.5, 10 mM MgCl2, 2 mM EGTA, 1 mM NaF, 0.5 mM benzamidine, 1 mM DTT, 3 μM ATP, […] of biotinylated substrate peptide bio-[…], sequence derived from IRAK-1; for IRAK-4: 20 mM Tris-HCl, pH 7.5, 10 mM MgCl2, 2 mM EGTA, 1 mM NaF, 0.5 mM benzamidine, 1 mM DTT, 10% glycerol, 10 μM ATP, […] of biotinylated substrate peptide bio-[…], sequence derived from GFAP).
(§2) At 10 μL/well in DMSO test compounds were added covering a final concentration range from 1 nM to […]. Recombinant, full-length IRAK-1 or IRAK-4 enzyme (baculovirus expression system) was added in 10 μL buffer containing Tris-HCl pH 7.5 20 mM, EGTA 2 mM, benzamidine 0.5 mM, DTT 1 mM, MgCl2 10 mM and glycerol 10% (IRAK-4 only) to initiate the kinase reaction. The reaction mixture was incubated at room temperature for 60 min on a shaker. During this incubation the substrate peptide is being phosphorylated by the kinase and gets captured onto the surface of the wells by neutravidin or streptavidin, respectively. The plate was washed 3× with 150 μL distilled water to terminate the reaction and remove components of the reaction mixture. A conventional chemiluminescent ELISA detection technique was initiated by adding 100 μL/well primary antibody (monoclonal antibody YC10, generated to recognize the phosphorylated epitope in the substrate peptide; used at 1:20,000 dilution for IRAK-1 and 1:10,000 dilution for IRAK-4) premixed with horseradish peroxidase (HRP) conjugated anti-mouse secondary antibody (commercially available from several sources; used at 1:10,000 dilution) in PBS containing 2% BSA. The solution was incubated at room temperature for 40 min on a shaker, then washed 3× with 150 μL of water. 100 μL/well 10× diluted SuperSignal HRP substrate (from Pierce) was added and after 5 min incubation the chemiluminescent signal was captured by a Labsystems LuminoSkan luminometer.
In general terms: An ELISA detects its analyte on a solid surface through an enzyme-linked reagent.

For the next experiment, the target named is T2, IRAK-4 (Homo sapiens, UniProt Q9NWZ3).
T2 construct: Recombinant, full-length IRAK-1 or IRAK-4 enzyme (baculovirus expression system) was added; His (N); made in house
T2 sequence (Q9NWZ3 1-460): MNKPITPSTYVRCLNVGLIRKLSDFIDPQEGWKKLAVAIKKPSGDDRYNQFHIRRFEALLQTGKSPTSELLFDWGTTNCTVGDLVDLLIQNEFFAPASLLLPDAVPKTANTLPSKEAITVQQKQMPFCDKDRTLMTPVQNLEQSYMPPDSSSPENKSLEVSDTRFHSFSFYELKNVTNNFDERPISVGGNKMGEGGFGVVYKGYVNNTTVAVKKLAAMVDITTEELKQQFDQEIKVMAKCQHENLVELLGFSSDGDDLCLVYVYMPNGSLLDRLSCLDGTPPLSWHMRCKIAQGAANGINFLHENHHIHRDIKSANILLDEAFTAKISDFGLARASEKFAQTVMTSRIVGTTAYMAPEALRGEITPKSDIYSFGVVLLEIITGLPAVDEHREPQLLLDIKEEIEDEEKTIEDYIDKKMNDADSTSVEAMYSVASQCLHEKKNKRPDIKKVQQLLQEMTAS
Description: Enzymatic inhibition assay, IRAK-4 kinase activity (chemiluminescent ELISA). The format is biochemical. The settings on record: for IC50: recombinant full-length IRAK-4, 10 μM ATP, 60 min room temperature, read-out: IC50 values (μM) IRAK-4. The protocol: Enzymatic inhibition assay. This example provides a method that is useful for evaluating test compounds for inhibition of IRAK-1 or IRAK-4 kinase activity.
as §1
as §2, with “luminometer. The point of 50% inhibition of IRAK-1 or IRAK-4 enzyme activity (IC50) was determined (see Table 1).” for “luminometer.”

pIC50: −log10 of the molar value. Like-named read-outs stand apart in the source and are kept apart here. A value given as a limit tells only on which side of the number the result lay.

As usually defined, the pIC50 is the IC50 on a negative log10 scale, so that one unit is a factor of ten. As a reminder, the IC50 is the concentration needed to halve the response being measured.

T1 sequence (P51617 whole entry): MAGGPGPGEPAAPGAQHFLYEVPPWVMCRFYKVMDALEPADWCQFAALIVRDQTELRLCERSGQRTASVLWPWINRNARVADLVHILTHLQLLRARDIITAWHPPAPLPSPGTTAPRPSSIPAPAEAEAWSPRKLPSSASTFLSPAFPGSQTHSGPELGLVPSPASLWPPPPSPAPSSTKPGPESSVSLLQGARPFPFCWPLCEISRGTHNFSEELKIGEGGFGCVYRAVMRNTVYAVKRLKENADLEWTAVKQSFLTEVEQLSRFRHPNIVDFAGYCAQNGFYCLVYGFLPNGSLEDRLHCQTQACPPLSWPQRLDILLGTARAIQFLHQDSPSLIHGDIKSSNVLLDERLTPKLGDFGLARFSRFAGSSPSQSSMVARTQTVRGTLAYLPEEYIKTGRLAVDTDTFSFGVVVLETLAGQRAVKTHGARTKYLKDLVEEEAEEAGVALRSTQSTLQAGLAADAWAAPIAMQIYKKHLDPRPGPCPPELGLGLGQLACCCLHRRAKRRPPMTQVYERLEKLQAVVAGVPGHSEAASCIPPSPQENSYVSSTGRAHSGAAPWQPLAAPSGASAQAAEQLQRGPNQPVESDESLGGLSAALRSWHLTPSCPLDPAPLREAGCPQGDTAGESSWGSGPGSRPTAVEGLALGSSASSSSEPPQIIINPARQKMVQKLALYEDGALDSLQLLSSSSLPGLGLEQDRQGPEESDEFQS

Turning to `COC(=O)c1cccc(C(=O)Nc2nc3ccccc3n2CCN2CCOCC2)c1` [Compound 11, 3-carboxymethyl-N-(1-(2-morpholin-4-yl-ethyl)-1H-benzoimidazol-2-yl)-benzamide], the pIC50 against IRAK-1 is > 5.00. Also, on IRAK-4, the IC50 was < 10 µM.
In the same order, the values of `CCOC(=O)Cn1c(NC(=O)c2cccc([N+](=O)[O-])c2)nc2cc(F)c(F)cc21` [Compound 6, 3-nitro-N-(1-(ethylacet-2-yl)-5,6-difluoro-1H-benzoimidazol-2-yl)-benzamide] are 4.52 to 5.00 and < 10 µM.
With `O=C(Nc1nc2ccccc2n1CCO)c1cccc(Cl)c1` [Compound 9, 3-chloro-N-(1-hydroxyethyl-1H-benzoimidazol-2-yl)-benzamide], the pIC50 against IRAK-1 is > 5.00. Further, the IC50 at IRAK-4 is < 10 µM.
For the compound `O=C(Nc1nc2ccccc2n1CCO)c1ccc(Cl)c(Cl)c1` [Compound 10, 3,4-dichloro-N-(1-hydroxyethyl-1H-benzoimidazol-2-yl)-benzamide], on IRAK-1, the pIC50 was 4.52 to 5.00. The IC50 at IRAK-4 is < 10 µM.
For the compound `CCn1c(NC(=O)c2ccc(OC)cc2)nc2ccccc21` [Compound 8, 4-methoxy-N-(1-ethyl-1H-benzoimidazol-2-yl)-benzamide], the pIC50 against IRAK-1 is 4.52 to 5.00. The IC50 at IRAK-4 lay in the range of 10 to 30 µM.
`O=C(Nc1nc2ccccc2[nH]1)c1cccc([N+](=O)[O-])c1` [Compound 1, 3-nitro-N-(1H-benzoimidazol-2-yl)-benzamide]: the IC50 on IRAK-1 is < 10 µM. Moreover, the pIC50 against IRAK-4 was > 5.00.
Regarding `O=C(Nc1nc2cc(F)ccc2n1[C@H]1CC[C@H](O)CC1)c1cccc([N+](=O)[O-])c1` [Compound 16, 3-nitro-N-(1-(trans-4-cyclohexanol-1-yl)-5-fluoro-1H-benzoimidazol-2-yl)-benzamide], the IC50 at IRAK-1 and on IRAK-4 was < 10 µM each time.
For `Cc1cc2nc(NC(=O)c3cccc([N+](=O)[O-])c3)[nH]c2cc1C` [Compound 2, 3-nitro-N-(5,6-dimethyl-1H-benzoimidazol-2-yl)-benzamide], the IC50 on IRAK-1 fell in the range of 10 to 30 µM. Moreover, the pIC50 at IRAK-4 is > 5.00.
On to `COC(=O)CCCn1c(NC(=O)c2cccc([N+](=O)[O-])c2)nc2ccccc21` [Compound 5, 3-nitro-N-(1-(3-carboxymethylpropyl)-1H-benzoimidazol-2-yl)-benzamide], for which, at IRAK-1, the pIC50 was > 5.00. Further, the IC50 at IRAK-4 is < 10 µM.
Regarding `O=[N+]([O-])c1cccc(CNc2nc3ccccc3[nH]2)c1` [Compound 17], the IC50 on IRAK-1 and on IRAK-4 was 10 to 30 µM throughout.
With `O=C(Nc1nc2ccccc2n1CCN1CCOCC1)c1ccc([N+](=O)[O-])o1` [Compound 13, 5-nitro-N-(1-(2-morpholin-4-yl-ethyl)-1H-benzoimidazol-2-yl)-2-furamide], the pIC50 at IRAK-1 is > 5.00. Moreover, the IC50 at IRAK-4 was < 10 µM.
In the same order, the values of `CS(=O)(=O)c1cccc(C(=O)Nc2nc3ccccc3n2CCN2CCOCC2)c1` [Compound 12, 3-methanesulfonyl-N-(1-(2-morpholin-4-yl-ethyl)-1H-benzoimidazol-2-yl)-benzamide] are > 5.00 and < 10 µM.
With `O=C(Nc1nc2ccccc2n1CCN1CCOCC1)c1cccs1` [Compound 14, N-(1-(2-morpholin-4-yl-ethyl)-1H-benzoimidazol-2-yl)-2-thiophenecarboxamide], the negative logarithm of the IC50 (pIC50) at IRAK-1 is 4.52 to 5.00. For the same compound, the IC50 at IRAK-4 was in the range of 10 to 30 µM.
Take `CC(C)(C)C(=O)Oc1ccc2c(c1)nc(NC(=O)c1cccc([N+](=O)[O-])c1)n2CCCO` [Compound 15a, 3-nitro-N-(1-hydroxypropyl-5-(2′,2′-dimethylpropionyl)-1H-benzoimidazol-2-yl)-benzamide]: on IRAK-4, the pIC50 is > 5.00.
With `O=C(Nc1nc2ccccc2n1CCN1CCOCC1)c1cccc([N+](=O)[O-])c1` [Compound 3, 3-nitro-N-(1-(2-morpholin-4-yl-ethyl)-1H-benzoimidazol-2-yl)-benzamide], the IC50 at IRAK-1 is < 10 µM. In addition, at IRAK-4, the pIC50 is > 5.00.
As to `COC(=O)c1ccc2c(c1)nc(NC(=O)c1cccc([N+](=O)[O-])c1)n2CCO` [Compound 7a, 3-nitro-N-(1-hydroxyethyl-5-carboxymethyl-1H-benzoimidazol-2-yl)-benzamide], the pIC50 against IRAK-1 was > 5.00. In addition, the IC50 at IRAK-4 was < 10 µM.
In the same order, the values of `O=C(Nc1nc2cc(F)c(F)cc2n1CCN1CCOCC1)c1cccc([N+](=O)[O-])c1` [Compound 4, 3-nitro-N-(1-(2-morpholin-4-yl-ethyl)-5,6-difluoro-1H-benzoimidazol-2-yl)-benzamide] are > 5.00 and < 10 µM.

These data come from patent publication US7132438B2, “Benzimidazole derivatives” (priority 2001, dated 2006).
